Measured values taken from US20060035969A1, “Novel modulators of the PPAR-type receptors and cosmetic/pharmaceutical compositions comprised thereof” (GALDERMA RESEARCH & DEVELOPMENT, S.N.C., priority 2003, published 2006).

Key:
Assay type in all cases: cell-based
[1] = target: T1, PPARα (Homo sapiens, UniProt Q07869); assay: Cross curve PPAR transactivation test (PPARα); details: HeLN cells stably transfected with ERE-βGlob-Luc-SV-Neo and Gal-hPPARα; cross curves against reference agonist, Schild regression; read-out: PPAR alpha Kd app
T1 construct: It is a handle made for the test, not a second protein
T1 sequence (Q07869 200-468 limits assumed): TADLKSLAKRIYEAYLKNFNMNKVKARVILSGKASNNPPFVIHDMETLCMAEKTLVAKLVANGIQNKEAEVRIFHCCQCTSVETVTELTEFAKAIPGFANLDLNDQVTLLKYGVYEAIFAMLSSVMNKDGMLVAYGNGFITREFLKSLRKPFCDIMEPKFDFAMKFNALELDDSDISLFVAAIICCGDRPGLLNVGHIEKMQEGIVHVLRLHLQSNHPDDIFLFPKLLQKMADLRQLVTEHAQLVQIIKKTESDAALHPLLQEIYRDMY
Protocol: (§1) The activation of receptors with an agonist (activator) in HeLN cells leads to the expression of a reporter gene, luciferase, which, in the presence of a substrate, generates light. The modulation of the receptors is measured as quantity of luminescence produced after incubating the cells in the presence of a reference agonist. The ligands will displace the agonist from its site. The measurement of the activity is performed by quantification of the light produced. This measurement makes it possible to determine the modulatory activity of the compounds according to the invention by determining the constant which is the affinity of the molecule for the receptor. Since this value can fluctuate according to the basal activity and the expression of the receptor, it is called apparent Kd (KdApp in nM).
(§2) To determine this constant, “cross curves” for the product to be tested against a reference agonist are produced in a 96-well plate: 10 concentrations of the test product plus a concentration 0 are placed in a line, and 7 concentrations of the agonist plus one concentration 0 are placed in a column. This is 88 measurement points for 1 product and 1 receptor. The 8 remaining wells are used for repeatability controls. […]
(§3) The various dilutions of the test products and of the reference ligand are added in an amount of 5 μl per well. […] After 5 minutes, the plates are read by the luminescence reader.

[2] = target: T2, PPARδ (Homo sapiens, UniProt Q03181); assay: Cross curve PPAR transactivation test (PPARδ); details: HeLN cells stably transfected with ERE-βGlob-Luc-SV-Neo and Gal-hPPARδ; cross curves against reference agonist, Schild regression; read-out: PPAR delta Kd app
T2 construct: It is a handle made for the test, not a second protein
T2 sequence (Q03181 211-441 limits assumed): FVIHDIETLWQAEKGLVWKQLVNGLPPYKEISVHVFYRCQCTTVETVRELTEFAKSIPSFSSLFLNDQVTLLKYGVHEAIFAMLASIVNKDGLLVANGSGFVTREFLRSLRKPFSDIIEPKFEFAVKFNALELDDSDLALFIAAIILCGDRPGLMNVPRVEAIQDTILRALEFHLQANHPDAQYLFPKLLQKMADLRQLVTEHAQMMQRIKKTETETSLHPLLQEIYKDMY
Protocol: as §1, §2, §3

[3] = target: T3, PPARγ (Homo sapiens, UniProt P37231); assay: Cross curve PPAR transactivation test (PPARγ); details: HeLN cells stably transfected with ERE-βGlob-Luc-SV-Neo and Gal-hPPARγ; cross curves against reference agonist, Schild regression; read-out: PPAR gamma Kd app
T3 construct: It is a handle made for the test, not a second protein
T3 sequence (P37231 238-505 limits assumed): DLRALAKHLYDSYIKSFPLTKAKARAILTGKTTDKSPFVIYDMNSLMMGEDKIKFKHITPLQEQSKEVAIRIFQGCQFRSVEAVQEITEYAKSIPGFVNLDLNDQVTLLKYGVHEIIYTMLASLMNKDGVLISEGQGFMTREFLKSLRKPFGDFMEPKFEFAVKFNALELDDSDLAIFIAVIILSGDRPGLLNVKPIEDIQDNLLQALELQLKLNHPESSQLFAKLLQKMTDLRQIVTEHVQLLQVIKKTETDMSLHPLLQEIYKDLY
Protocol: as §1, §2, §3

| Kd [1] [nM] | Kd [2] [nM] | Kd [3] [nM] | SMILES |
| --- | --- | --- | --- |
| 250 | 15 | 30 | O=C(O)Cc1cccc(Sc2ccc(N(CCc3ccccc3)C(=O)NC3CCCCC3)cc2)c1 [Example 18b, {3-[4-(3-Cyclohexyl-1-phenethylureido)phenylsulfanyl]phenyl}acetic acid] |
| – | 60 | 500 | CCCCCCCN(C(=O)NCCc1ccccc1)c1cccc(Sc2cccc(CC(=O)O)c2)c1 [Example 25b, {3-[3-(1-Heptyl-3-phenethylureido)phenylsulfanyl]phenyl}acetic acid] |
